Values quoted from earlier work, collected in patent US20090030079A1 (priority 2007, published 2009).
Where two headings read alike, the source gives them in different places.

Legend:
[1] = In^3+, cited from earlier work
[2] = Pd^2+, cited from earlier work
[3] = Bi^3+, cited from earlier work

Compound: CC(C)(S)[C@@H](N)C(=O)O [Penicillamine, 3-mercapto-D-valine]
- binding stability constant (log K) [1]: 15.33
- binding stability constant (log K) ([1]; listed as penicillamine): very strongly

Compound: NCCNCCNCCN [Trientine, N,N′-bis (2-aminoethyl)-1,2-ethanediamine]
- binding stability constant (log K) [2]: 39.4
- binding stability constant (log K) ([2]; listed as trientine): very strongly
- binding stability constant (log K) [3]: 21.9
- binding stability constant (log K) ([3]; listed as trientine): very strongly
